# Measured values published in US5159085A, “2-anilino phenylacetic acid derivatives as inhibitors of PLA2 and lipoxygenase” (American Home Products Corporation, priority 1991, dated 1992).
# Legend:
# LTC4 = test: In vivo murine zymosan peritonitis assay, LTC4 (lipoxygenase pathway); design: species or system mouse (male CD-1); settings: p.o., mouse, standard drugs
# Experimental: The compounds of the invention are evaluated for their ability to inhibit the lipoxygenase and/or cyclooxygenase pathways of arachidonic acid metabolism in the in vivo murine zymosan peritonitis assay.
# (§1) This assay is carried out as follows:
# Male CD-1 mice (8 weeks old) are placed in plastic boxes in groups of six. Animals are injected with 1 ml i.p. of either 1% zymosan in pyrogen free 0.9% saline or saline (unstimulated control). Compounds are dosed orally 1 hour prior to zymosan injection. Twenty minutes after zymosan injection, the mice are asphyxiated by CO2 inhalation and the peritoneal cavity is lavaged with 2 ml ice cold Hanks Balanced Salt Solution (HBSS) without CaCl2, MgSO4 ·7H2 O and MgCL2 ·6H2 O. Peritoneal lavage fluid from each mouse is removed by syringe and placed in 5 ml plastic test tubes put on ice and volume is noted. Preparation of samples for evaluation by ELISA is as follows: Samples are centrifuged at 800×g for 15 minutes; 1 ml of the supernatant is added to 8 ml ice cold methanol and kept at -70° C. overnight to precipitate protein; and samples are then centrifuged at 800×g for 15 minutes, followed by a drying procedure in a Savant speed vac concentrator. The samples are reconstituted with 1 ml ice cold ELISA buffer and stored at -70° C. until assayed. The assay for eicosanoids (LTC4 and 6-keto-PGF1α) is performed according to conventional ELISA procedures.
# Compounds to be tested orally are suspended in 0.5% Tween 80. Compounds to be tested intraperitoneally are suspended in 0.5% methylcellulose in 0.9% saline.
# The total metabolite level in lavage fluid/mouse is calculated and the significance is determined by a one-way analysis of variance with LSD comparisons to control (p≤0.05). Drug effects are expressed as a percent change from control values.
# [1] = test system: TxB2 synthesis (cyclooxygenase) by rat glycogen-elicited polymorphonuclear leukocytes; test: Inhibition of TxB2 synthesis by rat glycogen-elicited PMN (cyclooxygenase); type: cell-based, rat (female Wistar); settings: Rattus norvegicus, Leukocyte; at 0.5 μM; negative values denote potentiation of cyclooxygenase
# Experimental: (§2) Rat polymorphonuclear leukocytes (PMNs) are obtained from female Wistar rats (150-200 g) which receive an injection of 6% glycogen (10 ml i.p.). Rats are sacrificed 18-24 hours post injection by CO2 asphyxiation and the elicited cells are harvested by peritoneal lavage using physiological saline (0.9% NaCl). The exudate is centrifuged at 400×g for 10 minutes. The supernatant fluid is discarded and the cell pellet is resuspended to a concentration of 2.0×10^7 cells/ml in HBSS containing Ca^++ and Mg^++ and 10 μM L-cysteine.
# (§3) To 1 ml aliquots of cell suspension, test drugs or vehicle are added, then preincubated at 37° C. for 10 minutes. A 23187 (1 μM), [^3 H]-AA (3.0 μCi/ml) and unlabeled AA (1 μM) are then added and the samples are further incubated for 10 minutes. The reaction is terminated by centrifugation and pelleting cells. Supernatants are then analyzed by HPLC analysis on a 15 cm×4.6 mm ID supelcosil LC-18 (Supelco)(3M) column, using a two solvent system at a flow rate of 1.4 ml total flow as follows:
# (§4) Percent solvent changes are accomplished in a linear fashion.
# (§5) Injections: 150 μl of each supernatant is injected directly onto column and ^3 H arachidonic acid metabolites are monitored using an on-line radioactivity detector (Ramona, IN/US, Fairfield, NJ).
# (§6) Standards: 10^4 -2.0×10^4 dpm of eicosanoids of interest are injected in 90 μl EtOH cocktail.
# (§7) Co-chromatography with standard [^3 H] leukotriene B4 (LTB4) in medium of stimulated PMN exposed to drug is compared to that found in medium of stimulated cells exposed to no drug, generating percent inhibition.
# (§8) Results are expressed as percent inhibition at a given compound dose or as an IC50 value.
# In this assay, the procedure of Example 19 is carried out as described. However, in order to determine cyclooxygenase activity, the samples are co-chromatographed with authentic reference [^3 H]-TxB2.
# The results are calculated as in Example 19 and presented below: […]
# [2] = test system: LTB4 synthesis by rat glycogen-elicited polymorphonuclear leukocytes (lipoxygenase); test: Inhibition of LTB4 synthesis by rat glycogen-elicited polymorphonuclear leukocytes (PMN); type: cell-based, rat (female Wistar); settings: Leukocyte, A 23187 and exogenous AA; for inhibition at 0.5 µM: negative value denotes potentiation
# Description: This is especially true with respect to 5,12-diHETE, which is also denoted as LTB4 [see Ford-Hitchinson, J. Roy. Soc. Med., 74, 831 (1981)]. Compounds which inhibit the PLA2 -mediated release of arachidonic acid thereby effectively prevent the oxidation of arachidonic acid to the various leukotriene products via the lipoxygenase cascade. Accordingly, the specificity of action of PLA2 inhibitors can be determined by the activity of test compounds in this assay, which measures the ability of compounds to inhibit the synthesis of LTB4 by rat glycogen-elicited polymorphonuclear leukocytes (PMN) in the presence of exogenous substrate.
# (§9) The assay is carried out as follows:
# as §2, §3
# Gradient: (system is equillibrated with Solvent A)
# as §4, §5, §6, §7, §8
# human platelet PLA2 = target: T1, human platelet PLA2 (Homo sapiens, UniProt P14555); test: In vitro isolated phospholipase A2 assay, human platelet PLA2 (arachidonic acid release from 3H-AA E. coli substrate); type: biochemical; settings: 10 μM; human platelet; negative values denote potentiation; read-out: % Inhibition at 10 μM HP
# T1 construct: Semipurified human platelet acid extract PLA2; from tissue; host or cells: human platelets (semipurified acid extract)
# T1 sequence (P14555 21-144): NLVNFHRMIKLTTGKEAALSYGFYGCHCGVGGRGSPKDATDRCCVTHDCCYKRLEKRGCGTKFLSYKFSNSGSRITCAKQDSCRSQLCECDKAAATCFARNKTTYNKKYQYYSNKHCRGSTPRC
# [3] = test system: paw edema induced by exogenous PLA2 (snake, A. piscivorus piscivorus); test: In vivo PLA2 murine paw edema assay; design: species or system mouse (male CD-1); settings: for change in vivo at 1 mg/kg: Mus musculus, ip, 0.5 h; for % Change in Edema 30 min / change in vivo at 1 mg/kg: 30 min
# Experimental: The ability of the compounds of the invention to inhibit paw edema induced by the exogenous administration of PLA2 is measured in the in vivo PLA2 murine paw edema assay.
# as §9
# Non-fasted, male CD-1 mice (8 weeks old; 31-36 grams) are placed in plastic boxes in groups of six. The right hind paw volume is measured using mercury plethysmography (zero time). […] A solution of purified PLA2, from the diamond back cotton mouth snake (A. piscivorus piscivorus) is prepared in saline at a concentration of 6 μg/ml. Fifty (50) μl (0.3 μg) of this PLA2 solution is injected subcutaneously into the right hind paw with a plastic 1 ml plastic syringe (27 gauge, 1" needle). Paw volume of the injected paw is measured again at 10 minutes, 30 minutes and 60 minutes after PLA2 injection. Animals are euthanized with CO2 at the completion of the study.
# The paw edema is calculated by subtracting the zero time volume from the volume recorded at each time period. Mean paw edema for each treatment group is then calculated and expressed as (μl±S.E.). Drug effects are expressed as a percent change from control (vehicle) values. Statistical significance is determined by a one-way analysis of variance with LSD comparison to control (p<0.05). ED50 's are determined using repression analysis.
# [4] = target: T2, human synovial fluid PLA2 (Homo sapiens, UniProt P14555); test: In vitro isolated phospholipase A2 assay, human synovial fluid PLA2; type: biochemical; settings: 10 μM; human synovial fluid; negative values denote potentiation; read-out: % Inhibition at 10 μM HSF
# T2 construct: Purified human synovial fluid; from tissue; host or cells: human synovial fluid
# T2 sequence (P14555 21-144): T1 sequence (P14555 21-144)
# Experimental: The compounds of the invention are tested in an in vitro isolated phospholipase A2 assay to determine the ability of the test compounds to inhibit the release of arachidonic acid from an arachidonic acid-containing substrate by the action of phospholipase A2 enzyme from human and non-human sources.
# as §1
# Into a 15 mL polypropylene tube are added the following:
# *pre-incubate at room temperature 30 min prior to substrate addition.
# ^5 Stock 10 mM prepared in dimethyl sulfoxide. Make 1:2 dilution with
# dimethyl sulfoxide and add 1 μ L to 100 μL assay tube.
# ^6 Two human PLA2 enzymes are used:
# b) Purified human synovial fluid.
# Incubate the 100 μL reaction mixture for 10 minutes at 37° C. in a shaking water bath. The reaction is terminated by the addition of 2 mL tetrahydrofuran, followed by vortexing. NH2 columns (100 μg/mL--Analytichem International) are conditioned with 0.5 mL tetrahydrofuran followed by 0.5 mL tetrahydrofuran/water (2 mL:0.1 mL, v/v).
# The sample is loaded onto the columns and slowly drawn through them. The hydrolyzed arachidonic acid retained in the columns is eluted therefrom with 1 mL tetrahydrofuran/glacial acetic acid (2%). The arachidonic acid is transferred to scintillation vials and quantitated by β-counting analysis. A "total counts" sample is prepared by pipetting 25 μL ^3 H-arachidonate E. coli directly into a scintillation vial to which is added 1 mL tetrahydrofuran. 10 mL aquasol (scintillation cocktail) is added to all samples. [formula]
SMILES,ED50 LTC4 (LTC4),inhibition at 0.5 µM [1] [%],inhibition at 0.5 µM [2] [%],inhibition at 10 µM (human platelet PLA2) [%],"% Change in Edema 3 min ([3]; 1 mg/kg i.p., 3 min) [%]",% Change in Edema 10 min ([3]; 1 mg/kg i.p.) [%],% Change in Edema 10 min ([3]; 10 mg/kg i.p.) [%],% Change in Edema 30 min ([3]; 10 mg/kg i.p.) [%],% Change in Edema 60 min ([3]; 10 mg/kg i.p.) [%],% Change in Edema 10 min ([3]; 50 mg/kg p.o.),% Change in Edema 30 min ([3]; 50 mg/kg p.o.) [%],% Change in Edema 60 min ([3]; 50 mg/kg p.o.) [%],change in vivo at 1 mg/kg ([3]; 1 mg/kg i.p.) [%],inhibition at 10 µM [4] [%],inhibition at 10 µM ([2]; at 10 μM) [%]
"CC(C)Cc1ccc(C(C)C(=O)O)cc1 (stereo not drawn) [Ibuprofen, reference compound]",Not Active,–,–,–,–,–,–,–,–,–,–,–,–,–,–
"COc1ccc2c(c1)c(CC(=O)O)c(C)n2C(=O)c1ccc(Cl)cc1 [Indomethacin, reference compound]",Not Active,–,–,–,–,–,–,–,–,–,–,–,–,–,–
"O=C(O)Cc1cc(OCc2ccc3ccc(Cl)cc3n2)ccc1Nc1c(Cl)cccc1Cl [Example 6, 5[(7-Chloro-2-quinolinyl)methoxy]-2-[(2,6-dichlorophenyl)amino]benzene acetic acid]",–,26,80,-8.6,-4,-18,-24,-24,-32,-18%,-39,-10,-12,38.8,–
"O=C(O)Cc1cc(OCc2ccc3ccccc3c2)ccc1Nc1c(Cl)cccc1Cl [Example 8, acetic acid]",–,30,67,-3.9,–,–,-28,-43,-47,+35%,-37,-24,–,42.5,–
"COC(=O)Cc1cc(OCc2ccc3ccccc3c2)ccc1Nc1c(Cl)cccc1Cl [Example 7, 2-[(2,6-Dichlorophenyl)amino]-5-[(2-naphthalenyl)-methoxy]benzene acetic acid methyl ester]",–,-26,–,3.6,–,-54,-32,-39,–,–,–,–,-44,-65.4,34
